Data taken from patent publication US9775902B2, “Compounds and methods for treatment of stroke” (FIBROGEN, INC, priority 2006, dated 2017).
Values joined by “and” are separate entries in the source; they are usually repeats but may differ in a detail not shown here. Identical values can stand only once.

Test system: vascular endothelial growth factor (VEGF)
Experiment: Brain VEGF gene expression in mice after intravenous injection
Format: in vivo, Swiss Webster mice
Details: 20 mg/kg i.v., four hours, quantitative real time PCR normalized to 18s RNA, 20 mg/kg
Protocol: The effect of compounds of the present invention on regulation of cytoprotective and neuroprotective gene expression in brain was evaluated. In one series of experiments, male Swiss Webster mice were administered by intravenous injection various compounds of the present invention. Animals treated by intravenous injection received a 6 ml/kg volume of either 5% Dextrose with an equimolar amount of Meglumine (vehicle control) or 20 mg/kg of a compound of the present invention in 5% dextrose with an equimolar amount of Meglumine Animals were euthanized four hours later and their brains placed in RNAlater (Ambion, Austin Tex.) for subsequent analysis. Tissues were homogenized in Trizol (Invitrogen, Carlsbad Calif.) using 5-mm steel beads in a Mixer Mill (Qiagen, Valencia Calif.). RNA was isolated from the Trizol solution and then further purified using RNeasy kit (Qiagen). cDNA was prepared from […] total RNA using Omniscript reverse transcriptase (Qiagen) and random hexamers. Quantitative real time PCR was performed in a 7900HT instrument (Applied Biosystems, Foster City Calif.) using TaqMan Assays-on-Demand (Applied Biosystems). Gene expression levels were normalized to that of 18s RNA.

## O=C(O)CNC(=O)c1nc(Oc2ccccc2F)c2ccccc2c1O [Compound Z, {[1-(2-Fluoro-phenoxy)-4-hydroxy-isoquinoline-3-carbonyl]-amino}-acetic acid]
  VEGF gene expression in brain: 2.2 and 2.1
